Measurements taken from patent US9486467B2, “Method of treating colorectal cancer that expresses a mutated APC gene by administering erythromycin or tylosin” (RAMOT AT TEL-AVIV UNIVERSITY LTD., priority 2006, dated 2016).
Entries after “also recorded” stand apart in the source; their conditions may differ.

Legend:
[1] = system: APC hotspot stop codon mutations; experiment: Dual luciferase reporter plasmid system for APC stop codon readthrough; format: cell-based; details: HCT116 colorectal cancer cells; APC hotspots 1061, 1554, 1450; tylosin 4-80 μg/ml
Protocol: HCT116 CRC cells (control cells carrying a wild-type APC) were cultured in Dulbecco's modified Eagle's medium (DMEM) supplemented with 10% fetal calf serum (FCS) and 100 units/ml penicillin or streptomycin. Cells were kept in a humidified, 5% CO2 atmosphere at 37° C. Cells were transfected using JetPEI (PolyPlus Transfection). The cells were transfected with 0.5 μg of the described construct, and 48 hours later, the levels of luciferase were measured with the Luciferase assay kit (Promega, USA), according to the manufacturer's instructions.
A dual luciferase reporter plasmid system was used to measure the effect of tylosin on readthrough of APC hotspot stop codon mutations in colorectal tissue culture cells. In this system, the Renilla luciferase reporter gene is located upstream of the hotspot, and the firefly luciferase reporter gene is located downstream of the hotspot in the APC wild-type or mutated sequences, and both genes are under the transcriptional control of the APC promoter (FIG. 2a). The Renilla luciferase gene serves as an internal normalization control for transfection efficiency, mRNA abundance and the levels of translation initiation, since translation of both enzymes originates from the same translation initiation signal. Following normalization, the differences in firefly luciferase activities reflect the frequency of stop codon readthrough. Constructs containing either wild-type or the APC mutated sequence at the APC hotspot codons 1061 or 1554 were transfected into HCT116 colorectal cancer cells grown in the presence of varying amounts of antibiotics of the macrolide family.

β-catenin/Tcf signaling = experiment: pTOPFLASH luciferase reporter of β-catenin/Tcf-mediated transcription; format: cell-based; details: CX-1 CRC cells (stop mutation in APC hotspot 1554); 8 μg/ml tylosin; 48 h after transfection
Protocol: Cells were maintained as described above. Cells were transfected with 0.5 μg of pTOPFLASH and 0.05 μg Renilla (Promega, USA). Forty-eight hours later, the levels of luciferase were measured by using the Luciferase assay kit (Promega, USA).
Colorectal cell lines show high levels of β-catenin/Tcf-mediated transcription due to mutations that lead to over-activation of the Wnt signaling pathway. To measure the effect of tylosin on levels of β-catenin/Tcf-mediated transcription, CX-1 CRC cells containing a stop mutation in APC hotspot 1554 were transfected with pTOPFLASH, a luciferase reporter plasmid that is widely used for measuring transcriptional activity of Tcf and β-catenin (pTOPFLASH contains multimerized Tcf-binding sites linked to a luciferase reporter).

HT-29 CRC cells [2] = experiment: HT-29 CRC cell tumorigenicity in nude mice, tylosin in drinking water; format: in vivo; details: 0.4 μg/ml tylosin in the drinking water
Protocol: Six female Nude mice (SCID) were injected with 1×10^7 HT-29 cells. For fourteen days treated groups were fed a normal mouse diet and received drinking water containing 0.4 mg/ml of tylosin. The control group received regular drinking water. Following fourteen days, the mice were sacrificed and the tumors were removed and weighed.
Truncation of APC correlates with tumor formation (15). The present inventor predicted that restoration of functional, full-length APC protein in a cell line containing only truncated APC would lead to a decrease in tumorigenesis. 1×10^7 HT-29 CRC cells containing a hotspot mutation at codon 1554 of APC were injected into twelve nude SCID mice. The treated mice group (six mice) received 0.4 μg/ml tylosin in the drinking water. […] Following fourteen days of receiving drinking water with or without tylosin, the mice were sacrificed and the tumor was removed. The tumors were weighed and the tumor mass of the tylosin-treated mice was, on average, approximately 40% lower than that of the control group (FIG. 4b).

HT-29 CRC cells [3] = experiment: H&E histology of tumors from control and tylosin-treated mice; format: in vivo; details: tumor sections of tylosin-treated mice versus control
Text: Tumor sections from control and treated mice were stained with H&E stain. The slides were examined by a professional pathologist.
Tumor sections from control and tylosin-treated mice were stained with Hematoxylin and Eosin (H&E) stain, a stain used routinely for tissue sections, and were examined by a professional pathologist.

APC = experiment: Anti-APC immunoblot of tumor lysates from treated mice; format: in vivo; details: tumors of mice treated with 0.8 mg/ml, 0.4 mg/ml tylosin versus NT, HCT116 wild-type APC as size marker
Protocol: Tumors from control and treated mice were lysed, run on an SDS-PAGE gel, and transferred to a nitrocellulose membrane. The membrane was incubated with an anti-APC antibody (oncogene APC AB-2).

CC[C@H]1OC(=O)[C@H](C)[C@@H](O[C@H]2C[C@@](C)(OC)[C@@H](O)[C@H](C)O2)[C@H](C)[C@@H](O[C@@H]2O[C@H](C)C[C@H](N(C)C)[C@H]2O)[C@](C)(O)C[C@@H](C)C(=O)[C@H](C)[C@@H](O)[C@]1(C)O [erythromycin, Erythromycin]
APC stop codon readthrough (firefly luciferase normalized to Renilla) [1]: more moderate levels of stop codon readthrough

CC[C@H]1OC(=O)C[C@@H](O)[C@H](C)[C@@H](O[C@@H]2O[C@H](C)[C@@H](O[C@H]3C[C@@](C)(O)[C@@H](O)[C@H](C)O3)[C@H](N(C)C)[C@H]2O)[C@@H](CC=O)C[C@@H](C)C(=O)/C=C/C(C)=C/[C@@H]1CO[C@@H]1O[C@H](C)[C@@H](O)[C@@H](OC)[C@H]1OC [tylosin]
APC stop codon readthrough (firefly luciferase normalized to Renilla) [1]: significant levels of APC stop codon readthrough; also recorded: higher levels of readthrough compared to erythromycin, spiramycin, and gentamycin | reduction in β-catenin/Tcf/LEF transcriptional signaling (β-catenin/Tcf signaling): approximately 50% | tumor size versus control mice (HT-29 CRC cells [2]; nude SCID mice injected with 1×10^7 HT-29 cells, FIG. 4: ten days post-injection): reduced tumor size compared with the control mice; also recorded: smaller compared to that of the control group | tumor mass lower than that of the control group, on average (HT-29 CRC cells [2]; nude SCID mice, HT-29 cells, fourteen days): approximately 40% | blood supply to the tumor (H&E stain) (HT-29 CRC cells [3]): not affected | tumor histology (H&E stain) (HT-29 CRC cells [3]): necrosis and death of tumor cells | expression of full-length APC in tumors (anti-APC antibodies) (APC): a higher amount of tylosin increased the expression of the full-length protein accordingly | expression of full-length APC in tumors (anti-APC antibodies) (APC; listed as Tylosin): expression of full-length APC

Spiramycin
APC stop codon readthrough (firefly luciferase normalized to Renilla) [1]: more moderate levels of stop codon readthrough

gentamycin
APC stop codon readthrough (firefly luciferase normalized to Renilla) [1]: more moderate levels of stop codon readthrough
